Where a name gives a salt, the structure may show the parent alone. Peptide text beside a SMILES is read from it. * marks the point of attachment. Decanoyl = CCCCCCCCCC(=O)*; CH2Cl = ClC*
Columns and labels:
[1] = tested on: WT SARS-COV-2 (USA-WA1/2020); type: cell-based
SARS-COV-2 omicron JN.1 = assay: microbe, parasite or virus in culture; type: cell-based; settings: Severe acute respiratory syndrome coronavirus 2, 48 h; for inhibition at 36 µM: read-out: replication inhibition
SARS-COV-2 = settings: cited from earlier work
SARS-COV-2 (WA1/2020) = type: cell-based
229E-CoV = assay: organism not typed; type: cell-based; settings: for IC50: 48 h
[2] = molecular target: main protease of SARS-COV-2 (Severe acute respiratory syndrome coronavirus 2, UniProt P0DTD1); settings: cited from earlier work
MERS-COV = type: cell-based

| SMILES | dose-dependent inhibition of infection [1] | inhibition of SARS-COV-2 infection (dose-response curve) [1] | inhibition of infection [1] | IC50 (SARS-COV-2 omicron JN.1) [µM] | inhibition at 36 µM (SARS-COV-2 omicron JN.1) [%] | other results |
| --- | --- | --- | --- | --- | --- | --- |
| O=c1nc(NO)ccn1[C@@H]1O[C@H](CO)[C@@H](O)[C@H]1O [EIDD-1931] | dose-dependent inhibition of infection | strong inhibition efficacy | complete inhibition |  |  | reduction of infection [1]: at least 50% |
| CCN(CC)Cc1cc(Nc2ccnc3cc(Cl)ccc23)ccc1O [amodiaquine] |  |  |  | 12 to 12.1 | 80 to 95 |  |
| CN(C)C(=O)COC(=O)Cc1ccc(OC(=O)c2ccc(NC(=N)N)cc2)cc1 [camostat mesylate] |  | significantly inhibited |  |  |  | cell toxicity (ACE2plusC3 cells): without causing cell toxicity; SARS-COV-2-driven entry and infection (SARS-COV-2): significantly reduces |
| CCN(CC)CCCC(C)Nc1ccnc2cc(Cl)ccc12 (stereo not drawn) [chloroquine] |  |  |  | 12 to 12.1 | 80 to 95 |  |
| CCCCCCCCCC(=O)N[C@@H](CCCN=C(N)N)C(=O)N[C@H](C(=O)N[C@@H](CCCCN)C(=O)N[C@@H](CCCN=C(N)N)C(=O)CCl)C(C)C [decanoyl-RVKR-CMK] (Decanoyl-RVKR-CH2Cl) |  |  |  |  |  | inhibition of infection by immunofluorescence [1]: moderate inhibition of infection; inhibition of infection by plaque assay (viral titer) (SARS-COV-2 (WA1/2020)): moderate inhibition of infection |
| Cn1cnc(Cn2c(=O)[nH]/c(=N\c3cc4cn(C)nc4cc3Cl)n(Cc3cc(F)c(F)cc3F)c2=O)n1 [ensitrelvir] |  |  |  |  |  | inhibitory effect on infected cells (229E-CoV): no inhibitory effect |
| CCCCN(CCCC)CCC(O)c1cc2c(Cl)cc(Cl)cc2c2cc(C(F)(F)F)ccc12 (stereo not drawn) [halofantrine] |  |  |  | 4 | 80 to 95 | binding to main protease [2]: effectively binds |
| Cc1c(O)cccc1C(=O)N[C@@H](CSc1ccccc1)[C@H](O)CN1C[C@H]2CCCC[C@H]2C[C@H]1C(=O)NC(C)(C)C [nelfinavir] | dose-dependent inhibition of infection | potent and dose-dependent inhibition of infection | did not completely inhibit infection |  |  | concentration with increased toxicity (ACE2plusC3 cells; human): ≥ 25 µM |
| CC(C)(C)[C@H](NC(=O)C(F)(F)F)C(=O)N1C[C@H]2[C@@H]([C@H]1C(=O)N[C@H](C#N)C[C@@H]1CCNC1=O)C2(C)C [nirmatrelvir, Nirmatrelvir] | dose-dependent inhibition of infection | strong inhibition efficacy | nearly completely inhibited |  |  | CPE inhibition (MERS-COV): approximately 90%; IC50 (229E-CoV): 0.818 to 1.03 µM |
| N#C[C@H](C[C@@H]1CCCNC1=O)NC(=O)[C@H](CC1CC1)NC(=O)c1cc2cccc(Cl)c2[nH]1 [pomotrelvir] |  |  |  |  |  | IC50 (229E-CoV): 0.818 to 1.03 µM |
